From PMC9212491 (Antiviral Research, 2022)

Key:
rSARS-CoV-2/Nluc = experiment: microbe, parasite or virus in culture; format: cell-based, SARS-CoV-2; settings: for EC50: Severe acute respiratory syndrome coronavirus 2, Calu-3, read-out: EC50, SARS-CoV-2 infection, Calu-3 cells
JAK2 = settings: ref Stebbing et al.,2021; Klaeger et al.,2017; cited from earlier work
TYK2 = settings: ref Stebbing et al.,2021; Klaeger et al.,2017; cited from earlier work
EGFR = settings: ref Asquith et al., 2019a, 2019b; Davis et al.,2011; cited from earlier work
STK10 = settings: ref Asquith et al., 2019a, 2019b; Davis et al.,2011; cited from earlier work
YSK4 = settings: ref Asquith et al., 2019a, 2019b; Davis et al.,2011; cited from earlier work
SLK = settings: ref Asquith et al., 2019a, 2019b; Davis et al.,2011; cited from earlier work
AAK1 = AAK1 (Homo sapiens, UniProt Q2M2I8); experiment: In vitro binding, dissociation constant
BIKE = BIKE (Homo sapiens, UniProt Q9NSY1); experiment: In vitro binding, dissociation constant
[1] = alamarBlue viability, infected Vero E6 cells; format: cell-based; settings: African green monkey, 24 hpi
[2] = alamarBlue viability, infected Calu-3 cells; format: cell-based; settings: human
RIPK2 = settings: ref Asquith et al., 2019a, 2019b; cited from earlier work
ADCK3 = settings: ref Asquith et al., 2019a, 2019b; cited from earlier work
NLK = settings: ref Asquith et al., 2019a, 2019b; cited from earlier work
PDGFRβ = settings: ref Davis et al.,2011; cited from earlier work

Chain of AAK1 (Q2M2I8 whole entry): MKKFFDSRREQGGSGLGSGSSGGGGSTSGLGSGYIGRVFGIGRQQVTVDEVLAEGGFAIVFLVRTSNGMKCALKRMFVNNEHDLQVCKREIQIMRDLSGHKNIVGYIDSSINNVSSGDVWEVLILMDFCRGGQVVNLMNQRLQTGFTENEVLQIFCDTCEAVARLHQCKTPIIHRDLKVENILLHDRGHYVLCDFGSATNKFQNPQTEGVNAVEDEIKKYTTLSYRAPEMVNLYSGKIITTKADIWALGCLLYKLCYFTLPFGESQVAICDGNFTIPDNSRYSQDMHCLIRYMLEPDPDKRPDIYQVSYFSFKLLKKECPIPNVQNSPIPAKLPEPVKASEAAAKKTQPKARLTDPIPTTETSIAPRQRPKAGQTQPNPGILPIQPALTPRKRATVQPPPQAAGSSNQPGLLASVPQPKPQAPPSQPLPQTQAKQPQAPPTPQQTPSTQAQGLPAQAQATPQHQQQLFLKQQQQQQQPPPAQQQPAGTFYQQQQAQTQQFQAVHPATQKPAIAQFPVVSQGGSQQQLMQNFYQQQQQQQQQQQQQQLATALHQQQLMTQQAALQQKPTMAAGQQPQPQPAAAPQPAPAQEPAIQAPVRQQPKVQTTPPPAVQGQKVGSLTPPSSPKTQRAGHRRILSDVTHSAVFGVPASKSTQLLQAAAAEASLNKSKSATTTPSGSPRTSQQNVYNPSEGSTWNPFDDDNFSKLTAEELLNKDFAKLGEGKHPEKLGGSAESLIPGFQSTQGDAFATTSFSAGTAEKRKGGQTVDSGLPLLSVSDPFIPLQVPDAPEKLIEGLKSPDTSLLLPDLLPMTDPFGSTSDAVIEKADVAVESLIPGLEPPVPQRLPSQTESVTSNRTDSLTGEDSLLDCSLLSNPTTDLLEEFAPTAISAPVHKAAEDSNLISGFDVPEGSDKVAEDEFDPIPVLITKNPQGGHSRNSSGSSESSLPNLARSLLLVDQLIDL
Chain of BIKE (Q9NSY1 whole entry): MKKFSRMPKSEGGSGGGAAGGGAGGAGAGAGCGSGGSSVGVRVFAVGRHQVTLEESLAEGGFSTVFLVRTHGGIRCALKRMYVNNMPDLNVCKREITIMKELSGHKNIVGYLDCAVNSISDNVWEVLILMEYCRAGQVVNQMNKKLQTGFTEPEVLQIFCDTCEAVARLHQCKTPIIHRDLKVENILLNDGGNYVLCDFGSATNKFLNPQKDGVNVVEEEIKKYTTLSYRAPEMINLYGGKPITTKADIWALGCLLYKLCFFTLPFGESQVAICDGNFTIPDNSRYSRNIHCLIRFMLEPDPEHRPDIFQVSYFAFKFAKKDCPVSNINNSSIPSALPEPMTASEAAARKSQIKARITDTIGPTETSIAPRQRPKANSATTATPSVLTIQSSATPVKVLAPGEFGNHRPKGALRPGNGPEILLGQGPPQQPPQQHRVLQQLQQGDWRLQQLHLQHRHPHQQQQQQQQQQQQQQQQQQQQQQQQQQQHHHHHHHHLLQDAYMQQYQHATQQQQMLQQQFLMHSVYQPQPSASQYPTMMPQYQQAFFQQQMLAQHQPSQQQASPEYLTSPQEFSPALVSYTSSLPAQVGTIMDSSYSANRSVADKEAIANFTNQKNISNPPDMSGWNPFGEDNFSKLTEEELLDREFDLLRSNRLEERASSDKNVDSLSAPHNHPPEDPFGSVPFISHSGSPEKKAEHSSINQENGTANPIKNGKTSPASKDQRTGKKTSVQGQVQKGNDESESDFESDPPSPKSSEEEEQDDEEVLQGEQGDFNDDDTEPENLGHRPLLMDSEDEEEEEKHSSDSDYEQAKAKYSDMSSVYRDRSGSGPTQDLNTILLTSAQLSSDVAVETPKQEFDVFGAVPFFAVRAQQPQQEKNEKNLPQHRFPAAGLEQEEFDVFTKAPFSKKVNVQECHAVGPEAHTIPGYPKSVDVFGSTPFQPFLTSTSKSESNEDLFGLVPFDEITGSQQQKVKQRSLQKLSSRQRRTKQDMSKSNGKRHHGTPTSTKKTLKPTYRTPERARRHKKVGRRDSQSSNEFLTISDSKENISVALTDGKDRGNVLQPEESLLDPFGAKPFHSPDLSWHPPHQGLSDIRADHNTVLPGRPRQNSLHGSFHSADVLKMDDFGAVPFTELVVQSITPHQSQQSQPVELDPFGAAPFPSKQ

For `CCS(=O)(=O)N1CC(CC#N)(n2cc(-c3ncnc4[nH]ccc34)cn2)C1` [Baricitinib, baricitinib], the “antiviral activity in Calu-3 cells” value (rSARS-CoV-2/Nluc) is listed as “largely no antiviral activity”, the “JAK2 (Other targets, measure not stated)” value (JAK2) is listed as 5.7 nM and the “TYK2 (Other targets, measure not stated)” value (TYK2) is listed as 53 nM.

For `C#Cc1cccc(Nc2ncnc3cc(OCCOC)c(OCCOC)cc23)c1` [Erlotinib, erlotinib], the EC50 (rSARS-CoV-2/Nluc) is given as > 20 µM, the “ErbB1 (Other targets, measure not stated)” value (EGFR) is given as 0.7 nM and the “STK10 (Other targets, measure not stated)” value (STK10) is given as 19 nM. For the same compound, the “YSK4 (Other targets, measure not stated)” value (YSK4) was 25 nM and the “SLK (Other targets, measure not stated)” value (SLK) was 26 nM.

With `C=CC(=O)Nc1cccc(-c2snc3cc(-c4ccc(N)c(OC)c4)cnc23)c1` [RMC-242, N-(3-(6-(4-amino-3-methoxyphenyl)isothiazolo [4,3-b]pyridin-3-yl)phenyl) acrylamide] the Kd (AAK1) was 4.1 µM, the Kd (BIKE) was > 15 µM and the EC50 (rSARS-CoV-2/Nluc) was 1.6 µM. For the same compound, the CC50 at 24 h post infection [1] was 16 µM and the CC50 at 24 h post infection [2] was > 20 µM.

For `COc1cc(Nc2ccnc3ccc(Br)cc23)cc(OC)c1OC` [SGC-GAK-1], the EC50 (rSARS-CoV-2/Nluc) was 2.3 µM, the CC50 at 24 h post infection [1] was > 20 µM and the CC50 at 24 h post infection [2] was > 20 µM. For the same compound, the “RIPK2 (Other targets, measure not stated)” value (RIPK2) was 110 nM, the “ADCK3 (Other targets, measure not stated)” value (ADCK3) was 190 nM and the “NLK (Other targets, measure not stated)” value (NLK) was 520 nM.

In the case of `CCN(CC)CCNC(=O)c1c(C)[nH]c(/C=C2\C(=O)Nc3ccc(F)cc32)c1C` [Sunitinib, sunitinib], the EC50 (rSARS-CoV-2/Nluc) is reported as 2.9 µM, the CC50 at 24 h post infection [1] is reported as 12.2 µM and the CC50 at 24 h post infection [2] is reported as > 20 µM. For the same compound, the “PDGFRβ (Other targets, measure not stated)” value (PDGFRβ) was 2 nM.
